Assay results from patent US20250276996A1, “CATIONICALLY-ENFRAMED HIGH DENSITY AROMATIC PEPTIDES” (Research Foundation of the City University of New York, priority 2022, published 2025).
“Also recorded” adds a separate entry of the source. Non-standard residues stand in square brackets, D forms with d. Residues, ends and D or L forms follow the SMILES beside them. *: point of attachment. Biotin = O=C1N[C@H]2[C@H](CS[C@H]2CCCCC(=O)*)N1

Key:
[1] = system: MDBK cells; experiment: Uptake and intracellular localization of biotin-HDAP2 (streptavidin staining); assay type: cell-based, bovine; conditions: for cellular uptake and intracellular localization: 37° C., up to 1 h
Description: (§1) Biotin-HDAP2 was studied using Madin-Darby Bovine Kidney Epithelial cell line (MDBK). Monolayers of cells were grown on 6-well plates for 3 days. On day 4, cells were washed twice with pre-warmed DMEM, and then incubated with 0.2 ml of DMEM containing 10 μM biotin-HDAP2 at 37° C. for up to 1 h. Cells were then washed and fixed in 4% paraformaldehyde and biotin-HDAP2 was detected using Alexa FLUOR™ 488 streptavidin. Cells were also co-stained with MitoTracker-Red or DAPI to identify cytoplasmic compartment or nuclei, respectively. Cells were then visualized in a fluorescent microscope (Nikon Eclipse-ci-SRS).
as §1, with “MitoTracker-Red” for “MitoTracker-Red or DAPI”, “identify mitochondria.” for “identify cytoplasmic compartment or nuclei, respectively.”, “visualized using” for “visualized in”
Biotin-HDAP2 uptake: To assess uptake of biotin-HDAP2 into cells, cultures were incubated in serum-free media for three days to deplete endogenous biotin (Birk et al., 2013) and then treated with biotin-HDAP2 (1 μM) for one hour. Cells were fixed with 4% paraformaldehyde and incubated for one hour with Alexa Fluor 594 conjugated streptavidin (1:100, Jackson ImmunoResearch) to localize the peptide within the cells, Hoechst 33342 (10 μg/ml, Novus) to label nuclei, and Mito Tracker Red CMXRos (MTR; 50 nM, Invitrogen) to identify mitochondria; MTR binds to thiol groups, which are heavily concentrated in the mitochondrial matrix. Cells were rinsed and imaged immediately in the dish using a Nikon Eclipse 50i fluorescent microscope with a 40× immersion objective (NA 0.8).
Intracellular Localization of biotin-HDAP2: Intracellular targeting of biotin-HDAP2 was determined by incubating MDBK cells (ATCC-CCL22) that were grown in biotin-free media for 72 hours, with 10 μM of N-biotinylated biotin-HDAP2 for 1 hour. Cells were then fixed with 4% paraformaldehyde, permeabilized with 0.1% Triton X-100, and treated with streptavidin conjugated with Alexa Fluor 488 (SA) for 30 minutes at room temperature. […]
SA fluorescence was normalized to Hoechst fluorescence to account for differences in cell number in each field. The intensity of SA fluorescence was measured in each field, using the “Analyze” feature in ImageJ to compute the mean pixel intensity (in arbitrary fluorescence units) from the images. […]

[2] = system: mice; conditions: 3 mg/kg daily for 14 days or biweekly for two months
[3] = Nile Red fluorescence shift in POPC-CL liposomes; assay type: binding, bovine; conditions: 638 nm before the shift
Description: (§2) The resulting multilamellar vesicles were vortexed lightly and sized into small unilamellar vesicles by heated bath sonication for 25 min. All liposomes were cooled to ambient temperature before use.
(§3) Interactions between biotin-HDAP2 and Phospholipid liposomes measured by Nile Red fluorescence: The hydrophobicity of biotin-HDAP2 and phospholipids was examined by changes in the spectral fluorescence shift and intensity of Nile Red (NR, 10 μM). NR increases its intensity of fluorescence when combined with the hydrophobic environments of acyl chains of phospholipids, and produces a blue shift when hydrophobicity is increased. All experiments were done with 30 μM of either CL or POPC and 30 μM of biotin-HDAP2 in 10 mM Hepes (pH 7.4) to optimize the electrostatic interactions of peptides with phospholipids. The solvents used to dissolve the various phospholipids (chloroform, methanol, and ethanol) had negligible effects on the fluorescence spectra.

[4] = Nile Red fluorescence shift in POPC liposomes; assay type: binding
Description: as §2, §3

[5] = system: MDBK cells; experiment: Mitochondrial membrane potential in serum-starved cells (MitoTracker Red); assay type: cell-based, bovine
Description: MDBK cells incubated in serum free media for 5-7 days in the presence or absence of 1 μM of biotin-HDAP2. At the end of the incubation period 100 nM MitoTracker was added to the cells and incubated for 15 minutes. Then, media was removed and cells were fixed in 4% PFA. Cells were then visualized using a fluorescent microscope (Nikon Eclipse-ci-SRS). Experiments were conducted 5 times in triplicate for each experimental condition.
To measure the effects of biotin-HDAP2 on the mitochondrial potential and cellular oxidative stress, cells were cultured in DMEM/F12 without fetal bovine serum (FSB) in the presence or absence of biotin-HDAP2 (1 μM). After 3 days, nuclei were labeled with Hoechst 33342 (10 μg/ml) and cells were incubated for 15 minutes at 37° C. with MTR (100 nM) to evaluate the strength of the mitochondrial potential or were incubated with the general oxidative stress indicator CM-H2DCFDA (5 μM, Invitrogen, Carlsbad, CA) for 15 min at 37° C. In each instance, cells were imaged immediately after staining and prior to fixation.
Unless otherwise noted, data for all tissue culture experiments were collected from three independent trials, with each experiment done in triplicate. For each experiment, 4-6 fields of cells were randomly selected and imaged using a Nikon Eclipse 50i fluorescent microscope with a 40X immersion objective (NA 0.8) and using filters specific for either green or red wavelengths as appropriate (ex488 nm/ex515-540 nm). Photooxidation of the indicator dyes were minimized by using single exposures to the fluorescence for each field imaged. Fluorescence intensity was analyzed using ImageJ (NIH), and MTR and CM-H2DCFDA fluorescence were normalized to Hoechst fluorescence to account for differences in cell number in each field. Differences among groups were compared by Student's t-test and P values less than 0.05 were considered significant. All data are expressed as means±SEM.

For N=C(N)NCCC[C@@H](NC(=O)[C@H](Cc1ccccc1)NC(=O)[C@H](Cc1ccccc1)NC(=O)[C@@H](CCCNC(=N)N)NC(=O)CCCC[C@@H]1SC[C@@H]2NC(=O)N[C@@H]21)C(N)=O [biotin-HDAP2, Biotin-dArg-Phe-Phe-dArg-NH2] (Biotin-[dR]FF[dR]-NH2), the “cellular uptake and intracellular localization” value ([1]; 10 μM) was “targets mitochondria; also recorded: penetrates cell membranes”, the “cellular uptake and intracellular localization” value ([1]; 10 μM, listed as Biotin-HDAP2) was “primarily localized to the cytoplasmic compartment; also recorded: taken into mitochondria; also recorded: co-localized with MitoTracker-Red” and the “speed of entry into the cell compared with biocytin” value ([1]; 10 μM, 1 hour, serum-starved MDBK cells) was “about 6 times”. The “level of biotin-HDAP2 in cells relative to endogenous biotin” value ([1]; MDBK cells, streptavidin AF 488) was > 10 ×, the toxicity in mice [2] was “no adverse effects” and the “Nile Red emission after blue shift” value [3] was 618 nm. The “Nile Red shift” value [4] was “no shift could be detected”, the “mitochondria membrane potential in starved cells” value ([5]; 1 μM, serum free 5-7 days, 100 nM MitoTracker) was “improved mitochondria membrane potential in starved cells” and the “increase of MitoTracker Red CMXRos fluorescence intensity vs untreated controls” value ([5]; 1 μM, serum starvation) was “over 2.5 times”. The “increase of mitochondrial membrane potential compared to serum-free control” value ([5]; 1 μM, serum-free 3-4 days) was 150% and the “improvement of mitochondrial potential” value ([5]; FIG. 10D) was 2.5 fold.
